Columns and labels:
[1] = test system: malignant melanoma and advanced malignancies; conditions: Phase I, cited from earlier work
[2] = test system: LLC lung cancer; experiment: LLC tumor treatment and TME analyses; format: in vivo, mice; conditions: combined with αTLR
Protocol: Three types of solid tumors were tested: 1) MC38 colorectal carcinoma, 2) KPC pancreatic ductal adenocarcinoma, and 3) LLC lung cancer. Tumors were subcutaneously engrafted (s.c.), and treatments started when palpable tumors formed >=200 mm^3. […] In most experiments, TKi and αTLR agonist were together suspended in 500 μl PBS and administered via s.c. at a location distant form tumor. The intermittent treatment scheme was designed to administrate the first cycle, 2× pulse administrations (d1 and d2), an intermittent period (3-7 days), followed by a second cycle treatment.
In vivo tests for anti-tumor efficacy.

[3] = target: Lyn (Homo sapiens, UniProt P07948); conditions: information vendor provided; cited from earlier work
Chain of Lyn (P07948 whole entry, species assumed): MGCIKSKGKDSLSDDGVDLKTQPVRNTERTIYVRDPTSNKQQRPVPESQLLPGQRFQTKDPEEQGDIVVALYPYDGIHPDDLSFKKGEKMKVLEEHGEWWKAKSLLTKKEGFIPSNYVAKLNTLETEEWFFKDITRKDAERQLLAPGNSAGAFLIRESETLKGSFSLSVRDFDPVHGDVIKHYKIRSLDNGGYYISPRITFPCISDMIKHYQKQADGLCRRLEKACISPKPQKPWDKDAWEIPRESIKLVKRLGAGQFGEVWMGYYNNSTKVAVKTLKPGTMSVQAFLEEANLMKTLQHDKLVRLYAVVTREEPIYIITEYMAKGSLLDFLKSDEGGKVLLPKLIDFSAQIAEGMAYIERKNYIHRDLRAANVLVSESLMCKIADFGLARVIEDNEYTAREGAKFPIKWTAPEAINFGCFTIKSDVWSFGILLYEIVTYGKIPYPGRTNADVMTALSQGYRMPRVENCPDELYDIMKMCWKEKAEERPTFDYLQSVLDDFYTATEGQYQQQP

[4] = test system: SIRPα and PirB; experiment: iR phosphorylation and binding to SHP-1 in bone-marrow-derived macrophages; conditions: TLR agonist- and cancer ligation-induced, murine bone-marrow-derived macrophages
[5] = test system: MC38, KPC and LLC tumor models; experiment: Syngeneic murine tumor models, TKi alone or with proinflammatory activators; format: in vivo, mice; conditions: for anti-tumor efficacy, alone/monotherapy: TKi alone
[6] = test system: macrophages; experiment: Macrophage expression of cell surface antigen presentation machinery with αTLR and cancer cell ligation; format: cell-based, human and murine; conditions: αTLR-induced, in presence of cancer cell ligation
Protocol: (§1) After incubation for 15 minutes at 37° C., cells were gently washed to remove the majority of SW620, followed by lysis of macrophage using Hank's buffer (pH 7.2) containing 1% Triton and 1 mM PMSF. Protein tyrosine phosphatase (PTP) activity was assayed with […] Hank's buffer at 37° C.
(§2) In vitro assays. Macrophage response to αTLR was assayed in the presence of cancer cell ligation and with or without TK inhibitor. Macrophage SHP-1 activity (PTP activity), macrophage expression of antigen presentation machinery and proinflammatory cytokines were assayed.
(§3) The same in vitro macrophage stimulation in the present of cancer cell ligation experimental system as in Example 1 was used.

[7] = target: Lck (Homo sapiens, UniProt P06239); conditions: information vendor provided; cited from earlier work
Chain of Lck (P06239 whole entry, species assumed): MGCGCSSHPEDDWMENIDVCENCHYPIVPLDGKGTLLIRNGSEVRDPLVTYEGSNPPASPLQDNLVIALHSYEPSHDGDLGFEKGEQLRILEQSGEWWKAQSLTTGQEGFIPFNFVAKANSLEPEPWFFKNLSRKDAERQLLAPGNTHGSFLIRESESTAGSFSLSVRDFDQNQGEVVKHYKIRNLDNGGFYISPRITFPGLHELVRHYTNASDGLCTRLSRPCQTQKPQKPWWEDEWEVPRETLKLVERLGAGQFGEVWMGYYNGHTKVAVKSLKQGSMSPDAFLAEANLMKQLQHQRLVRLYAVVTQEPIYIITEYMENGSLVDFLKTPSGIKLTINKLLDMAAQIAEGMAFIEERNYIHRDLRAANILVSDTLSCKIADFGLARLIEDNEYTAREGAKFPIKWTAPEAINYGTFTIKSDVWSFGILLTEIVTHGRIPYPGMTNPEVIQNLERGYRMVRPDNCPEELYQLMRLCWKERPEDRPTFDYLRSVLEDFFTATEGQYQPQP

[8] = test system: macrophage SHP-1 activity; experiment: Macrophage SHP-1 (PTP) activity induced by αTLR and cancer cell ligation; format: cell-based, human; conditions: induced by αTLR (CpG, PolyIC, R848) and SW620 cancer cell ligation
Protocol: . After incubation for 15 minutes at 37° C., cells were gently washed to remove the majority of SW620, followed by lysis of macrophage using Hank's buffer (pH 7.2) containing 1% Triton and 1 mM PMSF. Protein tyrosine phosphatase (PTP) activity was assayed with […] Hank's buffer at 37° C.
as §2, §3
Specifically, an in vitro macrophage functional assay was set up in the presence of cancer cell (SW620) ligation of macrophage iRs. […]. In vivo anti-tumor efficacies with the combination of αTLR were shown in (FIG. 9C).

[9] = test system: macrophages; experiment: Macrophage proinflammatory cytokine production with αTLR and cancer cell ligation; format: cell-based, human and murine; conditions: αTLR-induced, in presence of cancer cell ligation
Protocol: as §1, §2, §3

[10] = target: c-Src (Homo sapiens, UniProt P12931); conditions: information vendor provided; cited from earlier work
Chain of c-Src (P12931 whole entry): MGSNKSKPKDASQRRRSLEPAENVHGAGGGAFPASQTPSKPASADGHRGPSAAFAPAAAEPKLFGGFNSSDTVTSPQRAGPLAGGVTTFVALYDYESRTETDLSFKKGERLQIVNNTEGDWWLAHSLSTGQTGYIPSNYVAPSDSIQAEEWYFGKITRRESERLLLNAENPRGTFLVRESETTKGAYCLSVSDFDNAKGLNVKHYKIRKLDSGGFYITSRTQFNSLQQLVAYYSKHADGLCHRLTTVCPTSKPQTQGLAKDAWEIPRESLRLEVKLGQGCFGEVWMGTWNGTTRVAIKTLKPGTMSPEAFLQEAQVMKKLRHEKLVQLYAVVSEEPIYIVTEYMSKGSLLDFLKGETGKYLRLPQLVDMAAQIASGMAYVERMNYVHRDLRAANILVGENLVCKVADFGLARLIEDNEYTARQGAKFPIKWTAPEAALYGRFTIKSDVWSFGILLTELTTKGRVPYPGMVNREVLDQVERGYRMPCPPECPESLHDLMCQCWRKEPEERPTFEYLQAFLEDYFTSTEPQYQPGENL

[11] = test system: SIRPα; experiment: SIRPα ITIMs phosphorylation and SHP-1 association in macrophages activated by proinflammatory stimuli; format: cell-based; conditions: macrophage activation by proinflammatory stimuli or cancer therapies
From the text: As shown, proinflammatory stimuli (TLR agonists, proinflammatory cytokines IL-1β, IL-6, IL-12, IL-17, IL-18, TNFα, IFNγ, etc., and cancer therapies) induce SIRPα ITIMs phosphorylation and exclusive association of SHP-1 (not SHP-2). Anti-inflammatory cytokine stimulation also induces SIRPα ITIMs phosphorylation but association with SHP-2.

[12] = test system: TLR7/8 overexpressing pancreatic cancer cell line; conditions: R848-stimulation; cited from earlier work

Compound	suppression of LLC tumor [2]	expression of cell surface antigen presentation machinery [6]	macrophage SHP-1 activity (PTP activity) [8]	production of proinflammatory cytokines (TNFα, IL-6, CXCL1) [9]	SIRPα cytoplasmic ITIMs phosphorylation and SIRPα association with SHP-1 [11]	further results
O.O.O.O.O.O.O.O.O.O=C([O-])[C@@H]1[O][Sb]2([O-])([O][Sb]34([OH])[O][C@H]([C@H](O)CO)[C@H]([O]3)[C@H](C(=O)[O-])[O]4)[O][C@H]([C@H](O)CO)[C@@H]1[O]2.[Na+].[Na+].[Na+] [SSG, sodium stibogluconate]						effect against tumor development ([1]; in combination with interferons followed or not by chemotherapy): no effect; patients with most common toxic side-effects [1]: up to 68%
CC(C)CCC[C@@H](C)[C@H]1CC[C@H]2[C@@H]3CCC4C[C@H](N)CC[C@]4(C)[C@H]3CC[C@]12C (stereo partly drawn) [3Ac]	not					
CN1CCN([C@H]2CC[C@H](n3cc(-c4ccc(Oc5ccccc5)cc4)c4c(N)ncnc43)CC2)CC1 [RK-20449, 7-((1R,4R)-4-(4-methylpiperazin-1-yl)cyclohexyl)-5-(4-phenoxyphenyl)-7H-pyrrolo[2,3-d]pyrimidin-4-amine]		marked increases	dose-dependently diminished	marked increases		IC50 [3]: < 3 nM; iR phosphorylation and binding to SHP-1 [4]: depleted; anti-tumor efficacy, alone/monotherapy [5]: not effective; IC50 [7]: < 3 nM
Cc1nc(Nc2ncc(C(=O)Nc3cc(NC(=O)c4cccc(C(F)(F)F)c4)ccc3C)s2)cc(N2CCN(CCO)CC2)n1 [UM-164]	not	elevated	capability of diminishing	Neither UM164 nor R406 enabled		IC50 [10]: 2.7 nM
C/C(O)=C(\C#N)C(=O)Nc1cc(Br)ccc1Br [LFMA-13]					not	
Cc1ccc(-c2nn(C(C)(C)C)c3ncnc(N)c23)cc1 [PP1]					diminished	
CC(C)(C)n1nc(-c2ccc(Cl)cc2)c2c(N)ncnc21 [PP2]					diminished	
CCOCc1nc2c(N)nc3ccccc3c2n1CC(C)(C)O [R848]						cell proliferation [12]: increased; chemosensitivity [12]: reduced
COc1cc(Nc2ncc(F)c(Nc3ccc4c(n3)NC(=O)C(C)(C)O4)n2)cc(OC)c1OC [R406]	effectively suppressed	elevated	capability of diminishing	Neither UM164 nor R406 enabled		intratumoral CD8+ T cell expansion [2]: induced intratumoral CD8+ T cell expansion; intratumoral macrophage antigen presentation [2]: induced intratumoral macrophages for antigen presentation
Cc1nc(Nc2ncc(C(=O)Nc3c(C)cccc3Cl)s2)cc(N2CCN(CCO)CC2)n1 [Dasatinib, N-(2-chloro-6-methylphenyl)-2-[[6-[4-(2-hydroxyethyl)-1-piperazinyl]-2-methyl-4-pyrimidinyl]amino]-5-thiazole carboxamide monohydrate]		marked increases	dose-dependently diminished	marked increases		iR phosphorylation and binding to SHP-1 [4]: depleted; anti-tumor efficacy, alone/monotherapy [5]: not effective; angiogenesis in tumors ([5]; mouse, in vivo): inhibits; TME immune populations (CD8+ T cells, NK cells, macrophages, MDSC) ([2]; LLC tumors, 3-day post treatment, various doses): dose-dependent effect of elevating CD8+ T cells and NK cells and reducing macrophages and MDSC
